Results: US20080275135A1, “Resorcinol Derivatives and Their Use for Lowering Blood Pressure” (priority 2004, published 2008)
Entries after “also recorded” stand apart in the source; their conditions may differ.

Legend:
[1] = system: rat aortic rings; conditions: literature, Offertaler et al. 2003; cited from earlier work
[2] = target: T1, cannabinoid receptor CB1 (Rattus norvegicus, UniProt P20272); assay: Cannabinoid receptor binding, [3H]HU-243 displacement, synaptosomal membranes; conditions: data not shown
T1 construct: from tissue
T1 sequence (P20272 whole entry): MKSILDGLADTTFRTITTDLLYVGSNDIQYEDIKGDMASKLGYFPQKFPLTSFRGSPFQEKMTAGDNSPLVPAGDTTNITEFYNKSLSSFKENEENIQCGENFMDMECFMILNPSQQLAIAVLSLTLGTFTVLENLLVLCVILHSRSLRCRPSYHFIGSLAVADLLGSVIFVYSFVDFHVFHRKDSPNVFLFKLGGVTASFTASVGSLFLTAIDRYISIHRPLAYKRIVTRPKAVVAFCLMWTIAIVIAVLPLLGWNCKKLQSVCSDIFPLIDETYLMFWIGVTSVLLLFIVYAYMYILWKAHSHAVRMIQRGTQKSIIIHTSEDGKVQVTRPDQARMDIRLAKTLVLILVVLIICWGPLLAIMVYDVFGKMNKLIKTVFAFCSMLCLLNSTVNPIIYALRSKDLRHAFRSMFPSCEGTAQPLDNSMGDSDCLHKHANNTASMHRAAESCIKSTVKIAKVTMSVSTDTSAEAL
Procedure: (§1) The protocol for cannabinoid receptor binding has been previously described [Devane W. A. et al. (1992) Science 258, 1946-1949]. […] Bound and free radioligand were separated by centrifugation. The data were normalized to 100% of specific binding, which was determined with 50 nM unlabeled HU-243. The Ki value was determined using the program GraphPad Prism (Version 3.02) which follows the Cheng-Prusoff equation. A sigmoid dose-response (variable slope) built-in equation in this Prism program was used to fit the curves.

[3] = target: T2, cannabinoid receptor CB2 (Homo sapiens, UniProt P34972); assay: Cannabinoid receptor binding, [3H]HU-243 displacement, transfected cells; conditions: data not shown
T2 construct: expressed in transfected cells
T2 sequence (P34972 whole entry): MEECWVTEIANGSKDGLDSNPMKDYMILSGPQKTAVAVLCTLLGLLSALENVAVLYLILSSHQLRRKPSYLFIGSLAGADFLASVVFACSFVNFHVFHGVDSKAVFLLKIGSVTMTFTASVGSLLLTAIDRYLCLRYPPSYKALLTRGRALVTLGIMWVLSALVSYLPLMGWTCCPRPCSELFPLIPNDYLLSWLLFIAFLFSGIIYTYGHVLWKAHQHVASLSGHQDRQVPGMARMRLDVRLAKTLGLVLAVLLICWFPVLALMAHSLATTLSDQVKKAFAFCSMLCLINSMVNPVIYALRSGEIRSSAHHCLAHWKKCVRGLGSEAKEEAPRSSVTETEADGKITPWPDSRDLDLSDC
Procedure: as §1

[4] = system: rat aortic rings; assay: Relaxation of phenylephrine pre-contracted aortic rings; parameters: species or system Sabra rats; conditions: for maximum vasorelaxation: FIG. 2A
Procedure: Abdominal aortic rings of male Sabra rats of 300 g average body weight were obtained from the animal facility of the Hebrew University of Jerusalem, campus Ein Kerem, Jerusalem, Israel. The animals were anaesthetized by an intra-peritoneal injection of pentobarbital (50 mg kg^−1). After thoracotomy, the aorta was excised, transferred to a dish filled with Krebs-Henseleit buffer (composition in mM: NaCl 150.0, KCl 5.4, MgSO4 1.17, NaH2 PO4 1.18, NaHCO3 6.0, CaCl2 1.0, HEPES 20.0, glucose 5.5, pH 7.4), cleared of periadventitial tissue, and cut into ring segments (3 mm in length). Only segments of the abdominal aorta were used. Two stainless-steel hooks were carefully passed through the lumen of each ring. One hook was connected to an isometric force transducer (BIOPAC Instruments, Goleta, Calif.) to measure tension in the vessels. The rings were placed in a 10-ml organ bath, gassed with 5% CO2 in O2 and maintained at 37° C. The rings were stretched until an optimal basal tension of 1.0 g. After this tension was achieved they were allowed to equilibrate for 60 minutes with the bath fluid being changed every 15-20 min. Baseline tension usually stabilized within 60 min of mounting, during which time there were four replacements of bathing solution. The segment was then pre-contracted by 5 μM phenylephrine. […] The levels of relaxation were then measured. The endothelial function was assessed by testing the relaxant effect of acetylcholine (10 nM-[…]) on aortic rings pre-contracted with phenylephrine. Failure of acetylcholine to elicit relaxation of aortic rings previously subjected to rubbing of the intimal surface was taken as evidence of endothelium removal. Concentration-response curves were generated by cumulative addition of the agonist. Whenever antagonists (PTX 0.5 μg/ml, SR-141716 A, SR-144528 or 10 μM of 0-1918) were used, they were added 20 min before the agonist (FIG. 2B). All experiments were conducted with aluminum foil-covered organ bath to prevent light-induced degradation of the drugs.

[5] = Blood pressure in anesthetized rats after i.v. bolus; format: in vivo, Sabra rats
Procedure: The protocol for testing blood pressure was applied essentially as previously described [Shochina, M. and Horowitz, M. (1989) J. Therm. Biol. 14, 109 113]. Adult male Sabra rats weighing between 225 to 250 g had their femoral vein cannulated for intravenous (i.v.) drug administration. Anesthesia was induced by the intraperitoneal (i.p.) injection of pentobarbital sodium 6%, 60 mg/kg. The femoral artery was cannulated and a catheter (PE 10 cannulae) was connected to a pressure transducer for continuous monitoring of blood pressure with a physiograph (AcKnowledge program). After a 30 minute stabilization period, the animals were injected with either vehicle (sahine:ethanol:Emulphor® 18:1:1) or the drug (Compound 1, as described above, varying from 1 to 10 mg/kg) injected in bolus i.v. in volumes ≧500 μl. The changes in blood pressure were monitored for 60 minutes. […] The hypotensive activity of Compound 1 leads the way to a new class of atypical cannabinoids with no psychotropic activity and with a mechanism of action differing from the anti-hypertensive drugs known to date.

[6] = target: T1, cannabinoid receptor CB1; conditions: high affinity receptor probe; read-out: dissociation constant; cited from earlier work

## C=C(C)[C@@H]1CCC(C)=C[C@H]1c1c(O)cc(O)cc1CCCCC (relative stereo) [Abn-CBD, (−)-4-(3-3,4-trans-p-menthadien-1,8)-yl-olivetol]
[1]
  antagonism by O-1918: antagonized by 0-1918

## CCCCCCC(C)(C)c1cc(O)c(C/C=C(\C)CCC=C(C)C)c(O)c1 [Compound 1, 2-geranyl-5-(1,1-dimethylheptyl)-resorcinol]
[2]
  binding to CB1: no binding
[3]
  binding to CB2: no binding
[4]; 10 μM O-1918 added 20 min before agonist, FIG. 2B, listed as CBG-DMH
  antagonism of relaxation by O-1918: did not result in antagonism; also recorded: does not antagonize
[4]; cumulative doses, 5 μM phenylephrine pre-contraction
  relaxation of pre-contracted segments: led to relaxation of the contracted segments
[4]; denuded artery
  maximum vasorelaxation: 25%
[4]; intact artery
  maximum vasorelaxation: 55%
[4]; pertussis toxin 0.5 μg/ml, data not shown
  aortic vasorelaxant effect in presence of pertussis toxin: inhibited in the presence of pertussis toxin
[4]; preliminary data
  vasodilator function: functions as a vasodilator
[5]; 2.5 mg/kg i.v., FIG. 1
  effect on blood pressure (BP): Reduction in blood pressure is already observed
[5]; 5 mg/kg i.v.
  change in heart rate: without causing change in the heart rate
  effect on blood pressure (BP): caused hypotension
[5]; 5 mg/kg i.v., listed as CBG-DMH
  effect on blood pressure (BP): the effect becomes much more pronounced
[5]; 1 to 10 mg/kg bolus i.v., FIG. 1
  mean systolic blood pressure over 60 minutes: clear reduction of the systolic blood pressure
[5]; CBD in similar doses
  antagonism of hypotensive effect by CBD: antagonized by CBD

## CCCCCCC(C)(C)c1cc(O)c2c(c1)OC(C)(C)[C@@H]1CC[C@@H](CO)C[C@@H]21 [[^3H]HU-243]
[6]
  Kd: 0.045 nM
